Values of other authors in PMC12805357, “Cooperative ligand binding in a bacterial heme-based oxygen sensor” (The Journal of Biological Chemistry, 2025).

How the values were obtained:
[1] = sperm whale myoglobin
[2] = parameters: method as in earlier work; conditions: myoglobins; ref 7 of the supplement (Faulkner et al., 1995)

## sperm whale myoglobin (swMb): sperm whale myoglobin, literature comparison protein
[1]
  n (Hill coefficient), O2 binding: 0.95 ± 0.05
[1]; read-out: Kd, equilibrium oxygen affinity
  Kd: 0.83 to 1.5 µM
[2]
  Midpoint 1 (mV vs SHE): 47 mV vs SHE
